Measurements as given in ChEMBL document CHEMBL1155669, “Herbacic acid, a simple prototype of 5,5,5-trichloroleucine metabolites from the sponge Dysidea herbacea” (J Nat Prod, 2000).
Calls of active or inactive are those of the source.

Columns and labels:
Assay type in all cases: functional, organism-based
[1] = tested on: Candida albicans; assay: Antifungal activity against Candida albicans ATCC 4503 at <100 ug/mL by microbroth dilution method
[2] = tested on: Nakaseomyces glabratus; assay: Antifungal activity against Candida glabrata at <100 ug/mL by microbroth dilution method
[3] = tested on: Pichia kudriavzevii; assay: Antifungal activity against Candida krusei at <100 ug/mL by microbroth dilution method
[4] = tested on: Candida albicans; assay: Antifungal activity against fluconazole-resistant Candida albicans 96-489 at <100 ug/mL by microbroth dilution method

Measured: Activity

C[C@@H](C/C=C/C(=O)N(C)[C@@H](C[C@H](C)C(Cl)(Cl)Cl)C(=O)O)C(Cl)(Cl)Cl
inactive: all assays above
